Here are results for 21 compounds from PubChem BioAssay (NCI).

What all share (assay): inhibition of tumour cell growth, NCI panel, 48 h
Test [1] relates to HCC-2998 colon.
For test [2], the system named is HOP-92 NSCLC.
In test [3] the test system is MCF7 breast.
Test [4] concerns SF-268 CNS.
Test [5] concerns SK-OV-3 ovarian.
The test system of test [6] is SK-MEL-2 melanoma.
The test system of test [7] is HOP-62 NSCLC.
Test [8] concerns NCI-H460 lung.
Test [9] deals with ACHN renal.
Test [10] has as its system U251 CNS.

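The compound was tested at five concentrations on cells cultured in 96-well plates, with a 48-hour exposure period. TGI: concentration producing complete growth inhibition.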 Some results are limits rather than exact numbers.

On to `Nc1c(/C=C/c2cc3cc(C4=NCCN4)ccc3o2)[nH]c2cc(C3=NCCN3)ccc12`, for which the TGI in [1], in test [2], in [3], in test [4], in test [5] and in test [6] was over 100 µM in each case. Further, the TGI was 96 µM in test [7], over 100 µM in test [8], over 100 µM in [9] and over 100 µM in test [10].
Turning to `O=C1Cc2c(-c3ccccc3)cc(-c3ccc(Cl)cc3)nc2-c2ccccc2N1`, the TGI in [1] is 33.4 µM; in test [2], 8.72 µM; in [3], over 72.2 µM; in [4], 20 µM; in [5], 7.85 µM; in test [6], 49.4 µM. Besides, the TGI in test [7] was determined as 12.9 µM; in [8], 11.5 µM; in test [9], 7.36 µM; in test [10], 10.5 µM.
For the compound `COc1ccc2c(C=O)c3n(c(=O)c2c1OC)CCc1cc2c(cc1-3)OCO2`, the TGI was 94.1 µM in test [1]; 88.5 µM in [2]; over 100 µM in [3]; over 100 µM in [4]; over 100 µM in [5]; over 100 µM in [6]. Further, the TGI in [7], in test [8], in [9] and in test [10] was over 100 µM each time.
Turning to `CCCCSC1=N/C(=C\c2ccccc2O)C(Cl)=N1`, the TGI in test [1], in test [2], in test [3], in [4], in test [5] and in [6] was over 100 µM in each case. Besides, the TGI in test [7], in test [8], in test [9] and in test [10] was over 100 µM in each case.
For the compound `O=C(CCc1ccccc1)NCCc1ccc(O)c(O)c1`, the TGI was over 100 µM in [1]; over 78.7 µM in test [2]; 93.9 µM in test [3]; over 100 µM in test [4]; over 100 µM in test [5]; 49.5 µM in test [6]. The TGI is 97.3 µM in test [7], over 100 µM in test [8], over 100 µM in test [9] and over 100 µM in test [10].
On to `CC(=O)OC1C(C)OC(OC2C[C@](O)(C(C)=O)Cc3c(O)c4c(c(O)c32)C(=O)c2ccccc2C4=O)C(F)C1OC(C)=O` (stereo not given in full), for which the TGI in [1] was 16.6 µM; in [2], 6.52 µM; in [3] it was over 20.2 µM; in [4], 24.6 µM; in test [5], 22.1 µM; in test [6], 11.3 µM. For the same compound, the TGI in test [7] is 13.8 µM; in [8], 1.53 µM; in [9], 0.704 µM; in test [10], 3.65 µM.
On to `N#Cc1c2c(c(Nc3ccc(Cl)cc3)n3c1nc1ccccc13)CCCC2`, for which the TGI in [1], in test [2], in [3], in [4], in [5] and in test [6] was over 100 µM each time. In addition, the TGI in test [7] was over 100 µM; in [8] it was over 100 µM; in [9], over 100 µM; in test [10] it was over 65.4 µM.
On to `C[C@@H](c1ccccc1)N(CC#N)[C@H]1CCC[C@]1(O)/C=C/c1ccc2c(c1)OCO2`, for which the TGI was over 25 µM in test [1]; over 25 µM in [2]; 11.5 µM in test [3]; over 25 µM in test [4]; over 25 µM in [5]; over 25 µM in test [6]. The TGI in [7] was over 25 µM; in [8] it was over 25 µM; in test [9] it was 8.04 µM; in test [10] it was over 25 µM.
Consider `O=C(Cn1c(-c2ccccc2)cc2ccccc21)N1CCOCC1`, for which the TGI in test [1], in test [2], in test [3], in test [4], in [5] and in test [6] was over 100 µM each time. Also, the TGI in test [7], in test [8], in test [9] and in [10] was over 100 µM throughout.
As for `CCc1nc2cc(F)ccc2[nH]c1=O`, the TGI in test [1], in [2], in test [3], in test [4], in test [5] and in test [6] was over 100 µM each time. Besides, the TGI in [7], in test [8], in test [9] and in test [10] was over 100 µM each time.
In the case of `CCCCC(C)(C/C=C/[C@@H]1[C@@H](C(O)CCCCCC(=O)OC)C(=O)C[C@H]1O[Si](C)(C)C(C)(C)C)O[Si](C)(C)C` (stereo not given in full), the TGI in test [1], in test [2], in [3], in test [4], in test [5] and in test [6] was over 100 µM in each case. Also, the TGI in test [7], in [8], in [9] and in test [10] was over 100 µM in each case.
Take `CC(=O)Oc1c(OC(C)C)cc(=O)n2ccsc12`: the TGI in test [1], in [2], in [3], in test [4], in test [5] and in [6] was over 100 µM throughout. For the same compound, the TGI in test [7], in [8], in test [9] and in [10] was over 100 µM throughout.
On to `CCCSC1=N/C(=C\c2ccco2)C(=O)N1`, for which the TGI in [1], in test [2], in [3], in test [4], in test [5] and in [6] was over 100 µM each time. Besides, the TGI in [7], in test [8], in [9] and in [10] was over 100 µM in each case.
Consider `N#Cc1c(N)n(-c2nc3ccccc3s2)c(=O)c2cc([N+](=O)[O-])ccc12`, for which the TGI is 41.2 µM in [1]; 42.3 µM in test [2]; 41.3 µM in test [3]; over 49.6 µM in [4]; 98.1 µM in test [5]; 40.3 µM in test [6]. Also, the TGI is 22 µM in test [7], over 65.8 µM in [8], over 72.8 µM in [9] and over 100 µM in test [10].
On to `CO/C(N)=C(\C#N)N=Cc1cccs1`, for which the TGI in test [1], in test [2], in test [3], in [4], in [5] and in [6] was over 100 µM throughout. Further, the TGI in test [7], in test [8], in test [9] and in [10] was over 100 µM in each case.
For `FC(F)(Sc1nc2ccccc2[nH]1)c1nc2ccccc2o1`, the TGI in test [1], in test [2], in test [3], in test [4], in test [5] and in test [6] was over 100 µM each time. The TGI in test [7], in test [8], in test [9] and in [10] was over 100 µM each time.
For the compound `CC(C)(C)OC(=O)NCCCCC1NC(=O)[C@@H]2Cc3c([nH]c4ccccc34)C(c3ccccc3)N2C1=O` (stereo not given in full), the TGI in [1] is 40.3 µM; in test [2] it was 85.1 µM; in [3], over 100 µM; in [4] it was over 100 µM; in [5] it was over 100 µM; in test [6] it was 50.5 µM. Further, the TGI in [7], in test [8], in test [9] and in [10] was over 100 µM throughout.
In the case of `COc1ccc(-c2cc(-c3ccc(Nc4ccnc5cc(C(F)(F)F)ccc45)cc3)nc(N)c2C#N)c2ccccc12`, the TGI in test [1], in [2], in [3], in [4], in test [5] and in test [6] was over 100 µM throughout. Further, the TGI in test [7], in test [8], in test [9] and in [10] was over 100 µM each time.
With `Nc1nc2c(c(-c3ccc(F)cc3)n1)COC/C2=C\c1ccc(F)cc1`, the TGI in [1], in test [2], in test [3], in test [4], in test [5] and in test [6] was over 100 µM each time. Moreover, the TGI in [7] was over 100 µM; in test [8] it was 34 µM; in [9], over 100 µM; in [10], 31 µM.
For the compound `CCN(CCCl)c1ccc(NC(=O)c2cc(C(=O)NCCN(C)C)cc(C(=O)Nc3ccc(N(CC)CCCl)cc3)c2)cc1`, the TGI in [1] worked out at 35 µM; in [2], 29.8 µM; in test [3] it was 19.6 µM; in test [4], 61.2 µM; in [5] it was 19.5 µM; in [6], 44.1 µM. Also, the TGI was found to be 16.4 µM in [7], 28 µM in [8], 21.3 µM in [9] and 22.1 µM in test [10].
In the case of `Cc1nnc(N)s/c1=N/O`, the TGI in test [1], in test [2], in test [3], in test [4], in test [5] and in test [6] was over 100 µM in each case. Also, the TGI in [7], in [8], in test [9] and in [10] was over 100 µM each time.
